Test results as given in patent publication US7947739B2, “Tranexamic acid formulations” (Ferring B.V., priority 2004, dated 2011).
Where two headings read alike, the source gives them in different places.

Experiments:
[1] = cited from earlier work; for dose excreted unchanged in the urine: IV 1 g
women with menorrhagia [2] = test: Example 8: 3-cycle study, Menorrhagia Instrument measures (MIQ Q1-Q6), responders, sanitary products, large stains; type: in vivo, human
heavy menstrual bleeding = conditions: cited from earlier work
[3] = Example 6: single dose followed by multiple doses study, noncompartmental plasma pharmacokinetics, linearity, steady state; type: in vivo, human; conditions: 1.3 g every 8 hours
Method: After an overnight fast, subjects received a single oral dose of tranexamic acid (1.3 g) on Day 1. Blood samples were taken before dosing and up to 36 hours post-dose. Subjects received another single oral dose of tranexamic acid (1.3 g) on the evening of Day 2, and 3 times a day (every 8 hours) starting on the morning of Day 3 until the last dose on the morning of Day 7. Blood samples were taken before the 6th, 9th, 12th and 15th dose (the last dose) for the determination of Cmin, and up to 8 hours after the last dose, for the determination of drug concentration at steady-state. Subjects were housed from at least 10 hours before the 1st dose on Day 1 until after the 8-hour blood draw following the 15th dose (on Day 7). […]
Calculations for plasma tranexamic acid were calculated by noncompartmental methods using the following pharmacokinetic parameters in Tables 15 and 16:
Descriptive statistics including arithmetic means, standard deviations and coefficients of variation were calculated on the individual concentration and pharmacokinetic data. Additionally, geometric means were calculated for the parameters AUC0-t, AUCinf, and Cmax for Day 1 and AUCτ, Cmax and Cmin for Day 7. […]
The ratio of LSM was calculated using the exponentiation of the Day LSM from the analysis on the In-transformed response. The ratio was expressed as a percentage relative to AUCinf (Day 1). […]

[4] = Example 6: compartmental pharmacokinetic analysis; type: in vivo; conditions: female, human, plasma, oral, 1.3 g; 295 mL/min×0.449; read-out: systemic clearance (CL)
Method: Compartmental analysis was performed on tranexamic acid data following single and multiple oral administrations of the modified release (MR) tablet formulation. Multiple compartmental models were constructed and their ability to fit plasma concentrations of tranexamic acid were evaluated using a standard two-stage (STS) approach with ADAPT-II (maximum likelihood analysis). The discrimination process was performed by computing the Akaike Information Criterion Test (AIC), the minimum value of the objective function (OBJ) and by looking at pertinent graphical representations of goodness of fit (e.g. fitted and observed concentrations versus time).
The final analysis was performed using an iterative two-stage approach with the IT2S® software. This software uses a population methodology which allows one to provide robust PK parameter estimates on an individual subject and population basis. All relevant pharmacokinetic parameters were calculated and reported. Concentrations were modeled using a weighting procedure of Wj=1/Sj^2 where the variance σj^2 was calculated for each observation using the equation σj^2=(a+b*Yj)^2 where a and b are the intercept and slope of each variance model. […] The analysis included the quantitative estimation of population PK parameters and interindividual variability of tranexamic acid in plasma.

women with menorrhagia [5] = test: Example 8: 3-cycle placebo-controlled study, menstrual blood loss (MBL) by alkaline hematin test, also stratified by fibroids; type: in vivo, human; conditions: 3 cycles
women with menorrhagia [6] = test: Example 9: 6-cycle study, Menorrhagia Instrument measures, responders, sanitary products, large stains; type: in vivo, human
women with menorrhagia [7] = test: Example 9: 6-cycle placebo-controlled study, menstrual blood loss (MBL) by alkaline hematin test; type: in vivo, human; conditions: 3.9 g/day
[8] = Published pharmacokinetics of tranexamic acid (Pilbrant et al.; Cyklokapron NDA); type: in vivo; conditions: human, serum, single 1.3 g oral dose, fasting, approx. 65% of 2 g dose published data
Method: By comparison, the in vivo absorption profile observed with the European immediate-release formulation is slow and very gradual over 3 hours. Specifically, tranexamic acid serum concentrations are 9, 41, 73, 88 percent (with food), and 22, 63, 85, and 98 percent (fasting) of maximal absorption at 0.5, 1, 1.5 and 2 hours after a 2 g oral dose, respectively.
Tranexamic acid is minimally bound (approximately 3%) to plasma proteins (mainly plasminogen) at “typical” therapeutic plasma concentrations of approximately 5-15 mg/L. The main route of elimination of tranexamic acid is renal glomerular filtration. After oral administration of tranexamic acid (250 or 500 mg) to healthy adults, between 40-70% of the administered dose is excreted unchanged in the urine within 24 hours. After IV administration (1 g) 30% of the dose is excreted unchanged in the urine within one hour, 45-55% within 2-3 hours and 90% within 24 hours.
For this reason, the concentration-time profile of tranexamic acid was estimated by simulating the data over 36 hours, after oral administration of a 1.3 g dose under fasting conditions, using NONMEM. Based on the simulation results, it would be appropriate to collect blood samples until 36 hours in order to characterize the AUC, Cmax, tmax, t½ and F.

[9] = 3.9 g/day compared with placebo

NC[C@H]1CC[C@H](C(=O)O)CC1 [tranexamic acid, trans-4-(aminomethyl)cyclohexanecarboxylic acid]
therapeutic antifibrinolytic range (therapeutic window) ([1]; Cyklokapron NDA 19-280): 5 to 15 µg/mL
dose excreted unchanged in the urine ([1]; within 2-3 hours): 45-55%
dose excreted unchanged in the urine ([1]; within 24 hours): 90%
dose excreted unchanged in the urine ([1]; within one hour): 30%
urinary recovery ([1]; Pilbrant, et al.): exceeded 95 % of the dose
gamma elimination half-life ([1]; after IV administration): approximately 7 hours
bound to plasma proteins ([1]; at therapeutic plasma concentrations of approximately 5-15 mg/L): approximately 3%
beta elimination half-life ([1]; in vivo): 2 h
excreted unchanged drug in the urine ([1]; in vivo): more than 95%
typical therapeutic plasma concentrations ([1]; in vivo): 5 to 15 mg/L
administered dose excreted unchanged in the urine ([1]; oral 250 or 500 mg, healthy adults, within 24 hours): 40-70%
mean LPA score, change from baseline (women with menorrhagia [2]; 3-cycle study): Significant treatment-related reductions
mean LSLA score, change from baseline (women with menorrhagia [2]; 3-cycle study): Significant treatment-related reductions
LWH (MI measure 2) (women with menorrhagia [2]; [9]): significantly reduced
subjects' assessments of MBL (MI item 1) (women with menorrhagia [2]; [9]): significantly reduced
proportion of responders (women with menorrhagia [2]; 3.9 g/day, first menstrual cycle, reduction in MBL and meaningful improvement (MI 6c)): 71.0%
women satisfied with the treatment (heavy menstrual bleeding; Winkler open label uncontrolled usage study, 849 patients): 80%
reduction of heavy menstrual bleeding (heavy menstrual bleeding; research from European countries): 40-50%
difference between the LSM of predose Day 6 and 7 [3]: less than 2%
largest difference in predose plasma concentrations, LSM of predose Day 5 compared to Day 6 and 7 [3]: less than 10%
clearance [4]: 123 mL/min
mean reduction in MBL from baseline (women with menorrhagia [5]; 1.95 g/day): 46.5 mL
percent MBL reduction compared with baseline (women with menorrhagia [5]; 1.95 g/day): 26.1%
mean reduction in MBL from baseline (women with menorrhagia [5]; 3.9 g/day): 65.3 mL
percent MBL reduction compared with baseline (women with menorrhagia [5]; 3.9 g/day): 38.6%
LWH (MI measure #2) (women with menorrhagia [6]; [9]): significantly reduced
subjects' assessments of MBL (MI measure #1) (women with menorrhagia [6]; [9]): significantly reduced
mean LPA score, change from baseline (women with menorrhagia [6]; 6-cycle study): significant treatment-related reductions
mean LSLA score, change from baseline (women with menorrhagia [6]; 6-cycle study): significant treatment-related reductions
mean reduction in MBL from baseline (women with menorrhagia [7]; […], 6-cycle study): 69.6 mL
percent MBL reduction compared with baseline (women with menorrhagia [7]; […], 6-cycle study): 40.4%
regression slope of response over the six menstrual cycles (women with menorrhagia [7]; p=0.615): −0.90 mL/cycle
AUC(0-t) ([8]; read-out: expected mean AUC0-6): ~40000 ng·h/mL
Cmax ([8]; read-out: expected mean Cmax): ~10000 ng/mL
